Among the data in US10414811B2, “Protease-resistant lipidated GLP-1 analogs” (MEDIMMUNE LIMITED, priority 2015, dated 2019) are EC50 values, retold here.

Molecules are shown by their SMILES. Read-outs that look alike come from different tables or passages of the source. Numbered stars: 1 amine (or outer) side, 2 acyl side, 3 side chain; on linkers, the order of the positions; unused ones are H or OH. Square brackets hold non-standard residues; d marks the D form. Side chains are listed from the residue outwards. Peptide text beside a SMILES is read from it. * marks the point of attachment. C18 diacid = O=C(O)CCCCCCCCCCCCCCCCC(=O)*; γGlu = O=C(O)[C@H](CCC(=O)[*:2])N[*:1]; αMeF = C[C@](N)(Cc1ccccc1)C(=O)O; αMeK = C[C@](N)(CCCCN)C(=O)O; Lauroyl = CCCCCCCCCCCC(=O)*; αMeS = C[C@](N)(CO)C(=O)O; AEEA = NCCOCCOCC(=O)O; Aib = CC(C)(N)C(=O)O

Format in all cases: cell-based
The target of test [1] is T1, human GLP-1 receptor (GLP-1R) (Homo sapiens, UniProt P43220).
T1 construct: expressed in transfected cells
In words: cAMP assay, human GLP-1R cells. The essentials: (§1)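 Peptide-stimulated cAMP measured by two-step HTRF after a 30 min room-temperature incubation with receptor-expressing cells (hGLP-1R, hGIPR at 1×10^5 cells/ml; hGCGR at 2×10^5 cells/ml). Duplicate dilutions; EC50 from 4-parameter logistic fit of % Delta F.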
For orientation: Cyclic AMP is a second messenger, typically raised through Gs and lowered through Gi signalling.

The target of test [2] is T2, human glucagon receptor (GCGR) (Homo sapiens, UniProt P47871).
T2 construct: expressed in transfected cells
In words: cAMP assay, human GCGR cells. The essentials: as §1

For test [3], the target named is T3, human glucose-dependent insulinotropic peptide receptor (GIPR) (Homo sapiens, UniProt P48546).
T3 construct: expressed in transfected cells
T3 sequence (P48546 22-466): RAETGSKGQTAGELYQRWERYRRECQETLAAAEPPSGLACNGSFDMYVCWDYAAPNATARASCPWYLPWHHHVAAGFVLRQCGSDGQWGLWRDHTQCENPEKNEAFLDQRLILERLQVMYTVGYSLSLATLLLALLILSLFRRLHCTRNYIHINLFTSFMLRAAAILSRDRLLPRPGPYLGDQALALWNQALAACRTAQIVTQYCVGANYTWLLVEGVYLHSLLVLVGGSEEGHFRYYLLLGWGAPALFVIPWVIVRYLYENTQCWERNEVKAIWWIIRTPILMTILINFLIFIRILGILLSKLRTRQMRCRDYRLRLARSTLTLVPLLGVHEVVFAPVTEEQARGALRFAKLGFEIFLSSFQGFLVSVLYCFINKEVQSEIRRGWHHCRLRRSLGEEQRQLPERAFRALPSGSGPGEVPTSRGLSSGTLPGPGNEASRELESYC
Description: cAMP assay, human GIPR cells. The essentials:
as §1

Where [4] appears, read: cAMP assay, first determination (n1), read-out: Primary assay EC50 GLP-1R n1.
Setting [5] is: cAMP assay, second determination (n2), read-out: Primary assay EC50 GLP-1R n2.
Setting [6] is: mean of n1 and n2, read-out: Mean pM GLP-1R.
The mark [7] stands for this setting: cAMP assay, first determination (n1), read-out: Primary assay EC50 Gluc-R (n1).
Where [8] appears, read: cAMP assay, second determination (n2), read-out: Primary assay EC50 Gluc-R (n2).
Setting [9] is: cAMP assay, first determination (n1), read-out: Primary assay EC50 GIP-R (n1).
[10] abbreviates: cAMP assay, second determination (n2), read-out: Primary assay EC50 GIP-R (n2).

T2 sequence (P47871 26-477): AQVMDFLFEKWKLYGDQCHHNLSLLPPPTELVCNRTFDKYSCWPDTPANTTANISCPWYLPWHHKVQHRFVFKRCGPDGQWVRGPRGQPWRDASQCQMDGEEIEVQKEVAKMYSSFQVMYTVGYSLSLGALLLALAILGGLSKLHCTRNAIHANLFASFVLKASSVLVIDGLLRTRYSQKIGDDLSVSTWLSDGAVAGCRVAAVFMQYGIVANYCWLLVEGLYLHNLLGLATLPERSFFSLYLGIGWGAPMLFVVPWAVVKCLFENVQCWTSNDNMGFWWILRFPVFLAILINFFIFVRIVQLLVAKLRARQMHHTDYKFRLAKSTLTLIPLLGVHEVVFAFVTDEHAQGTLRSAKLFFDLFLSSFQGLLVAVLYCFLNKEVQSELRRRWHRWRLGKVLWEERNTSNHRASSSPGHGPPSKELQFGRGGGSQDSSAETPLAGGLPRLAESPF
T1 sequence (P43220 24-463): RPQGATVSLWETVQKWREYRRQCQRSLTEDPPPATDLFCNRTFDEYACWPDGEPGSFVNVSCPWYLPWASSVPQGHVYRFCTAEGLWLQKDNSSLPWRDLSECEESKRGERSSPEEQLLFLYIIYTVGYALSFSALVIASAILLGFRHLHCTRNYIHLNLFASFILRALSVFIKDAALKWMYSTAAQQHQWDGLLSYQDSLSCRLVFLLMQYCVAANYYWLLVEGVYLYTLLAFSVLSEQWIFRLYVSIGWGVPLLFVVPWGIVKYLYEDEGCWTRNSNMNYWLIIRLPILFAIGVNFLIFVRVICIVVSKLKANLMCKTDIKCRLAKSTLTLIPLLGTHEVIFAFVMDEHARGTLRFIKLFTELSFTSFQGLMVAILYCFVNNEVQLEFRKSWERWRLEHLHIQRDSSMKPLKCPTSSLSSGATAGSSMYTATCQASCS

Regarding `CCCCCCCCCCCC(=O)N[C@@H](CCC(=O)NCCCC[C@H](NC(=O)[C@@H](NC(=O)[C@@H](NC(=O)[C@](C)(Cc1ccccc1)NC(=O)[C@H](C)NC(=O)[C@@H](NC(=O)[C@](C)(Cc1ccccc1)NC(=O)[C@H](CCC(=O)O)NC(=O)[C@](C)(CCCCN)NC(=O)[C@H](C)NC(=O)[C@H](C)NC(=O)[C@H](CCC(=O)O)NC(=O)CNC(=O)[C@H](CCC(=O)O)NC(=O)[C@H](CC(C)C)NC(=O)[C@](C)(Cc1ccccc1)NC(=O)[C@H](CO)NC(=O)[C@](C)(CO)NC(=O)[C@@H](NC(=O)[C@H](CC(=O)O)NC(=O)[C@H](CO)NC(=O)[C@@H](NC(=O)[C@](C)(Cc1ccccc1)NC(=O)[C@H](CO)NC(=O)CNC(=O)[C@H](CCC(=O)O)NC(=O)C(C)(C)NC(=O)[C@@H](N)Cc1c[nH]cn1)[C@@H](C)O)C(C)C)[C@@H](C)CC)C(C)C)C(C)C)C(=O)NCC(=O)NCC(N)=O)C(=O)O` [compound 164], the EC50 in test [1] (setting [4]) is 22 pM; in test [1] (setting [5]), 7.8 pM; in test [1] (setting [6]), 14.6 pM; in test [2] (setting [7]), at least 28 nM; in test [2] (setting [8]), at least 28 nM; in test [3] (setting [9]), at least 28 nM. In addition, in test [3] (setting [10]), the EC50 was at least 28 nM.

Regarding `CCCCCCCCCCCCCCCCCC(=O)NCCOCCOCC(=O)NCCCC[C@H](NC(=O)[C@H](C)NC(=O)[C@H](C)NC(=O)[C@H](CCC(=O)O)NC(=O)CNC(=O)[C@H](CCC(=O)O)NC(=O)[C@H](CC(C)C)NC(=O)[C@](C)(Cc1ccccc1)NC(=O)[C@H](CO)NC(=O)[C@](C)(CO)NC(=O)[C@@H](NC(=O)[C@H](CC(=O)O)NC(=O)[C@H](CO)NC(=O)[C@@H](NC(=O)[C@](C)(Cc1ccccc1)NC(=O)[C@H](CO)NC(=O)CNC(=O)[C@H](CCC(=O)O)NC(=O)C(C)(C)NC(=O)[C@@H](N)Cc1c[nH]cn1)[C@@H](C)O)C(C)C)C(=O)N[C@@H](CCC(=O)O)C(=O)N[C@@](C)(Cc1ccccc1)C(=O)N[C@H](C(=O)N[C@@H](C)C(=O)N[C@@](C)(Cc1ccccc1)C(=O)N[C@H](C(=O)N[C@H](C(=O)N[C@@](C)(CCCCN)C(=O)NCC(=O)NCC(N)=O)C(C)C)C(C)C)[C@@H](C)CC` [compound 152], the EC50 in test [1] (setting [4]) is 39 pM; in test [1] (setting [5]), 31 pM; in test [1] (setting [6]), 34.7 pM; in test [2] (setting [7]) it was at least 28 nM; in test [2] (setting [8]) it was at least 28 nM; in test [3] (setting [9]) it was at least 28 nM. Further, in test [3] (setting [10]), the EC50 was at least 28 nM.

As for `CC[C@H](C)[C@H](NC(=O)[C@](C)(Cc1ccccc1)NC(=O)[C@H](CCC(=O)O)NC(=O)[C@](C)(CCCCN)NC(=O)[C@H](C)NC(=O)[C@H](C)NC(=O)[C@H](CCC(=O)O)NC(=O)CNC(=O)[C@H](CCC(=O)O)NC(=O)[C@H](CC(C)C)NC(=O)[C@](C)(Cc1ccccc1)NC(=O)[C@H](CO)NC(=O)[C@](C)(CO)NC(=O)[C@@H](NC(=O)[C@H](CC(=O)O)NC(=O)[C@H](CO)NC(=O)[C@@H](NC(=O)[C@H](CCCCNC(=O)COCCOCCNC(=O)COCCOCCNC(=O)CC[C@H](NC(=O)CCCCCCCCCCCCCCCCC(=O)O)C(=O)O)NC(=O)[C@H](CO)NC(=O)CNC(=O)[C@H](CCC(=O)O)NC(=O)C(C)(C)NC(=O)[C@@H](N)Cc1c[nH]cn1)[C@@H](C)O)C(C)C)C(=O)N[C@@H](C)C(=O)N[C@@](C)(Cc1ccccc1)C(=O)N[C@H](C(=O)N[C@H](C(=O)N[C@@](C)(CCCCN)C(=O)NCC(=O)NCC(N)=O)C(C)C)C(C)C` [compound 123], the EC50 was 4900 pM in test [1] (setting [4]); 4430 pM in test [1] (setting [5]); 4660 pM in test [1] (setting [6]); at least 26 nM in test [2] (setting [7]); at least 25.6 nM in test [2] (setting [8]); at least 26 nM in test [3] (setting [9]). The EC50 in test [3] (setting [10]) is at least 25.6 nM.

Turning to `CC[C@H](C)[C@H](NC(=O)[C@](C)(Cc1ccccc1)NC(=O)[C@H](CCC(=O)O)NC(=O)[C@](C)(CCCCN)NC(=O)[C@H](C)NC(=O)[C@H](C)NC(=O)[C@H](CCC(=O)O)NC(=O)CNC(=O)[C@H](CCC(=O)O)NC(=O)[C@H](CC(C)C)NC(=O)[C@](C)(Cc1ccccc1)NC(=O)[C@H](CO)NC(=O)[C@](C)(CO)NC(=O)[C@@H](NC(=O)[C@H](CCCCNC(=O)COCCOCCNC(=O)COCCOCCNC(=O)CC[C@H](NC(=O)CCCCCCCCCCCCCCCCC(=O)O)C(=O)O)NC(=O)[C@H](CO)NC(=O)[C@@H](NC(=O)[C@](C)(Cc1ccccc1)NC(=O)[C@H](CO)NC(=O)CNC(=O)[C@H](CCC(=O)O)NC(=O)C(C)(C)NC(=O)[C@@H](N)Cc1c[nH]cn1)[C@@H](C)O)C(C)C)C(=O)N[C@@H](C)C(=O)N[C@@](C)(Cc1ccccc1)C(=O)N[C@H](C(=O)N[C@H](C(=O)N[C@@](C)(CCCCN)C(=O)NCC(=O)NCC(N)=O)C(C)C)C(C)C` [compound 120] (H-H[Aib]EGS[αMeF]TSK([AEEA-AEEA-γGlu-C18 diacid])V[αMeS]S[αMeF]LEGEAA[αMeK]E[αMeF]IA[αMeF]VV[αMeK]GG-NH2), the EC50 was 4100 pM in test [1] (setting [4]); 3130 pM in test [1] (setting [5]); 3640 pM in test [1] (setting [6]); at least 25 nM in test [2] (setting [7]); at least 25.3 nM in test [2] (setting [8]); at least 25 nM in test [3] (setting [9]). In addition, the EC50 in test [3] (setting [10]) is at least 25.3 nM.

In the case of `CCCCCCCCCCCC(=O)N[C@@H](CCC(=O)N[C@@H](CCC(=O)NCCCC[C@H](NC(=O)[C@@H](NC(=O)[C@@H](NC(=O)[C@](C)(Cc1ccccc1)NC(=O)[C@H](C)NC(=O)[C@@H](NC(=O)[C@](C)(Cc1ccccc1)NC(=O)[C@H](CCC(=O)O)NC(=O)[C@](C)(CCCCN)NC(=O)[C@H](C)NC(=O)[C@H](C)NC(=O)[C@H](CCC(=O)O)NC(=O)CNC(=O)[C@H](CCC(=O)O)NC(=O)[C@H](CC(C)C)NC(=O)[C@](C)(Cc1ccccc1)NC(=O)[C@H](CO)NC(=O)[C@](C)(CO)NC(=O)[C@@H](NC(=O)[C@H](CC(=O)O)NC(=O)[C@H](CO)NC(=O)[C@@H](NC(=O)[C@](C)(Cc1ccccc1)NC(=O)[C@H](CO)NC(=O)CNC(=O)[C@H](CCC(=O)O)NC(=O)C(C)(C)NC(=O)[C@@H](N)Cc1c[nH]cn1)[C@@H](C)O)C(C)C)[C@@H](C)CC)C(C)C)C(C)C)C(=O)NCC(=O)NCC(N)=O)C(=O)O)C(=O)O` [compound 165], the EC50 in test [1] (setting [4]) is 14 pM; in test [1] (setting [5]) it was 6 pM; in test [1] (setting [6]) it was 10.2 pM; in test [2] (setting [7]), at least 27 nM; in test [2] (setting [8]), at least 27 nM; in test [3] (setting [9]) it was at least 27 nM. Moreover, the EC50 in test [3] (setting [10]) is at least 27 nM.

For `CCCCCCCCCCCC(=O)N[C@@H](CCC(=O)NCCOCCOCC(=O)NCCOCCOCC(=O)NCCCC[C@H](NC(=O)CNC(=O)[C@H](CCC(=O)O)NC(=O)[C@H](CC(C)C)NC(=O)[C@H](Cc1ccc(O)cc1)NC(=O)[C@H](CO)NC(=O)[C@H](CO)NC(=O)[C@H](CCCCNC(=O)COCCOCCNC(=O)COCCOCCNC(=O)CC[C@H](NC(=O)CCCCCCCCCCC)C(=O)O)NC(=O)[C@H](CC(=O)O)NC(=O)[C@H](CO)NC(=O)[C@@H](NC(=O)[C@](C)(Cc1ccccc1)NC(=O)[C@H](CO)NC(=O)CNC(=O)[C@H](CCC(=O)O)NC(=O)C(C)(C)NC(=O)[C@@H](N)Cc1c[nH]cn1)[C@@H](C)O)C(=O)N[C@@H](C)C(=O)N[C@@H](C)C(=O)N[C@@](C)(CCCCN)C(=O)N[C@@H](CCC(=O)O)C(=O)N[C@@H](Cc1ccccc1)C(=O)N[C@H](C(=O)N[C@@H](CCCCNC(=O)COCCOCCNC(=O)COCCOCCNC(=O)CC[C@H](NC(=O)CCCCCCCCCCC)C(=O)O)C(=O)N[C@@H](Cc1ccccc1)C(=O)N[C@H](C(=O)N[C@H](C(=O)N[C@@H](CCC(=O)O)C(=O)NCC(=O)NCC(N)=O)C(C)C)C(C)C)[C@@H](C)CC)C(=O)O` [compound 440] (H-H[Aib]EGS[αMeF]TSDK([AEEA-AEEA-γGlu-Lauroyl])SSYLEGK([AEEA-AEEA-γGlu-Lauroyl])AA[αMeK]EFIK([AEEA-AEEA-γGlu-Lauroyl])FVVEGG-NH2; N-terminus assumed), the EC50 in test [1] (tris-lipidated peptides, mean of n1 and n2, read-out: Primary assay EC50 Mean pM GLP-1R) is 130 pM; in test [1] (tris-lipidated peptides, replicate n1, read-out: Primary assay EC50 GLP-1R n1), 96.7 pM; in test [1] (tris-lipidated peptides, replicate n2, read-out: Primary assay EC50 GLP-1R n2) it was 164 pM; in test [2] (tris-lipidated peptides, second replicate, read-out: Primary assay EC50 Gluc-R (n2)), 19.7 nM; in test [3] (tris-lipidated peptides, first replicate, read-out: Primary assay EC50 GIP-R (n1)), 19.7 nM.
